Assay results reported in PubChem BioAssay (NCI).
“And” between values parts separate entries of the source, which are not always exact repeats. Identical values can stand only once.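 The compound was tested at five concentrations on cells cultured in 96-well plates, with a 48-hour exposure period. GI50: concentration for 50% inhibition of growth. TGI: concentration producing complete growth inhibition.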

Columns and labels:
Assay in all cases: inhibition of tumour cell growth, NCI panel, 48 h
SR leukemia = tested on: SR leukemia
HOP-92 NSCLC = tested on: HOP-92 NSCLC
SK-MEL-28 melanoma = tested on: SK-MEL-28 melanoma
K-562 leukemia = tested on: K-562 leukemia
SN12C renal = tested on: SN12C renal
A549 NSCLC = tested on: A549 NSCLC
NCI-H226 lung = tested on: NCI-H226 lung
ACHN renal = tested on: ACHN renal
HOP-62 NSCLC = tested on: HOP-62 NSCLC
UACC-62 melanoma = tested on: UACC-62 melanoma

SMILES | TGI (SR leukemia) [µM] | TGI (HOP-92 NSCLC) [µM] | TGI (SK-MEL-28 melanoma) | TGI (K-562 leukemia) | TGI (SN12C renal) | TGI (A549 NSCLC) [µM] | TGI (NCI-H226 lung) | TGI (ACHN renal) | TGI (HOP-62 NSCLC) | TGI (UACC-62 melanoma) | GI50 (SR leukemia) [µM] | GI50 (HOP-92 NSCLC) [µM] | GI50 (SK-MEL-28 melanoma) [µM] | GI50 (K-562 leukemia) [µM] | GI50 (SN12C renal) [µM] | GI50 (A549 NSCLC) [µM] | GI50 (NCI-H226 lung) [µM] | GI50 (ACHN renal) [µM] | GI50 (HOP-62 NSCLC) | GI50 (UACC-62 melanoma)
CCN(CC)C(=O)COc1ccc(Br)cc1Br | > 100 | > 100 | > 100 µM | > 100 µM | > 100 µM | > 100 | > 100 µM | > 100 µM | > 100 µM | > 100 µM |  |  |  |  |  |  |  |  |  | 
Cc1nc(NC(=O)CCCN2C(=O)c3cccc4cccc(c34)C2=O)sc1C(=O)Nc1cc(C(=O)NCCCN(C)C)n(C)c1 | > 100 | > 100 | > 100 µM | > 100 µM | > 100 µM | > 100 | > 100 µM | > 100 µM | > 100 µM | > 100 µM | > 100 | > 100 | > 100 | > 100 | > 100 | > 100 | > 100 | > 100 | > 100 µM | > 100 µM
COc1ccc(/C=C/c2n[nH]c3ccc(N4CCOC4=O)cc23)cc1 | 3.03 | 9.09 | 12.4 µM | > 100 µM | > 100 µM | 14.2 | 15.4 µM | 23.2 µM | 13 µM | 6.83 µM | 0.461 | 4 | 3.39 | 2.54 | 2.14 | 1.66 | 2.44 | 2.64 | 2.14 µM | 2.6 µM
O=C(Nc1c(O)[nH]c(=S)[nH]c1=O)c1ccc2ccccc2n1 | > 100 | > 100 | > 100 µM | > 100 µM | > 100 µM | > 100 | > 100 µM | > 100 µM | > 100 µM | > 100 µM |  |  |  |  |  |  |  |  |  | 
Cc1ccc(S(=O)(=O)N2CCc3ccc(O)c4c3C2Cc2cc(Cl)ccc2-4)cc1 (centres undefined) | 4.26 | 3.62 | 5.84 µM | 14.8 µM | 7.42 µM | 5.44 | 8.4 µM | 23.5 µM | 5.65 µM | 3.77 µM | 1.06 | 0.354 | 1.68 | 1.16 | 1.78 | 1.16 | 2.63 | 2.06 | 1.56 µM | 0.962 µM
Cc1ccc(Cl)c(NC(=O)C(=O)C(C(=O)c2ccncc2)C2OC(=O)c3ccccc32)c1 (centres undefined) | > 100 | > 100 | > 100 µM | > 100 µM | > 100 µM | > 100 | > 100 µM | > 100 µM | > 100 µM | > 100 µM |  |  |  |  |  |  |  |  |  | 
C[C@@]12CCC(=O)C=C1CC[C@H]1C2=CC[C@]2(C)C1CC[C@@]2(C)O (some centres undefined) | > 100 | > 100 | > 100 µM | > 100 µM | > 100 µM | > 100 | > 100 µM | > 100 µM | > 100 µM | > 100 µM |  |  |  |  |  |  |  |  |  | 
COC1=CC(c2ccc[nH]2)=N/C1=C\c1ccc[nH]1 | 1.31 | 1.26 | 9.35 µM | > 32.7 µM | 19.7 µM | 12.6 | 12.4 µM | 11.3 µM | 9.27 µM | 0.516 µM | 0.0222 | 0.199 | 0.774 | 0.273 | 0.433 | 0.201 | 0.363 | 0.226 | 0.27 µM | 0.219 µM
NS(=O)(=O)c1ccc(CCN=C=S)cc1 | > 100 | 3.36 | 7.28 µM | > 100 µM | 5.14 µM | 4.85 | 8.52 µM | 3.65 µM | 10.1 µM | 3.59 µM | 2.44 | 1.33 | 2.59 | 2.54 | 2.17 | 2.03 | 2.84 | 1.85 | 3.23 µM | 1.81 µM
CS(=O)(=O)Nc1ccc(Nc2c3ccccc3nc3ccccc23)cc1 | 3.83 | 24.2 | 20.7 µM | 21.2 µM | 17.1 µM | 10.1 | 7.14 µM | 2.69 µM | 13 µM | 9 µM |  |  |  |  |  |  |  |  |  | 
CO[C@@H]1[C@H](OC(=O)NC(=O)CCl)CC[C@]2(CO2)[C@H]1[C@@]1(C)O[C@@H]1CC=C(C)C | 39.4 | 38.5 | 32.8 µM and 47.9 µM | 58.5 µM and 129 µM | 31.3 µM and 25.7 µM | 44.2 | 50.4 µM and 50.3 µM | 30.8 µM and 37.5 µM | 41.1 µM and 44.9 µM | 26 µM and 24.1 µM | 6.76 |  | 18.9 | 32.7 | 3.27 | 4.25 | 23.7 | 7.3 | 9.11 µM and 0.958 µM | 6.21 µM and 4.01 µM
COC(=O)CCC/C=C\C[C@H]1C=CC(=O)/C1=C/C[C@@H](O)C/C=C\CC(F)(F)F | 5.44 | 7.88 | 4.77 µM | 28.3 µM | 7.38 µM | 8.73 | 4.1 µM | 3.97 µM | 5.16 µM | 3.64 µM | 0.384 | 3.27 | 2.08 | 0.789 | 2.53 | 2.91 | 2.08 | 1.95 | 1.89 µM | 1.2 µM
COc1ccc(/C(C)=N/OC(=O)c2c(-c3ccccc3Cl)noc2C)cc1CN1CCOCC1 | > 100 | 91.8 | 54.4 µM | > 100 µM | 51.3 µM | 50.9 | > 100 µM | 32.8 µM | 62.1 µM | 30 µM |  |  |  |  |  |  |  |  |  | 
N#Cc1ccnc(N2C(=O)CC[C@H]2C(=O)N(c2cncc(F)c2)[C@H](C(=O)NC2CC(F)(F)C2)c2ccccc2Cl)c1 | > 100 | > 100 | > 100 µM | > 100 µM | > 100 µM | > 100 | > 100 µM | > 100 µM | > 100 µM | > 100 µM | 62.5 | 73 | > 100 | > 100 | 60.8 | 65.8 | > 100 | > 100 | > 100 µM | 41.2 µM
CC(C)(C)c1ccc(C(O)c2ccc(C(C)(C)C)cc2)cc1 | 41.7 | 25.2 | 30.8 µM | 33.3 µM | 25.8 µM | 27.2 | 19.5 µM | 30.2 µM | 30 µM | 30.2 µM |  |  |  |  |  |  |  |  |  | 
